From patent EP0023093A1, “Penicillanic acid derivatives, their preparation and their pharmaceutical compositions with a penicillin or cephalosporin” (BEECHAM GROUP PLC, priority 1979, dated 1981)

Key:
Format in all cases: cell-based
Staph Russell = test: standard MIC test, compound alone and in combination with ampicillin
Proteus C889 = test: as above
[1] = system: 7 cephalosporinase - producing E. coli strains; test: standard MIC test, cephaloridine with synergist; conditions: Escherichia coli, read-out: Geometric Mean (MIC)
Source text: A composition of sodium 6β-methanesulphonyloxypenicillanate and cephaloridine against 7 cephalosporinase - producing E. coli strains results in the following MIC's in a standard test.

[2] = substance alone (the 2nd table)
[3] = substance alone (the 1st table)

MIC (Staph Russell; [2]) [µg/mL] | MIC (Proteus C889; [2]) [µg/mL] | MIC (Staph Russell; [3]) [µg/mL] | MIC (Proteus C889; [3]) [µg/mL] | SMILES | MIC [1] [µg/mL]
16 | > 500 | – | – | CC1(C)S[C@@H]2[C@H](OS(=O)(=O)c3ccc(Br)cc3)C(=O)N2[C@H]1C(=O)O [Calcium 6β-p-bromobenzenzsulphonyloxypenicillanate] | –
– | – | 4 | 62.5 | CC1(C)S[C@@H]2[C@H](OS(C)(=O)=O)C(=O)N2[C@H]1C(=O)O [Sodium 6β-methanesulphonyloxypenicillanate] | –
– | – | – | – | O=C(Cc1cccs1)N[C@@H]1C(=O)N2C(C(=O)[O-])=C(C[n+]3ccccc3)CS[C@H]12 [Cephaloridine] | 152
250 | > 2000 | 62.5 | 1000 | CC1(C)S[C@@H]2[C@H](NC(=O)[C@H](N)c3ccccc3)C(=O)N2[C@H]1C(=O)O [Ampicillin] | –
